Reference: PMC7266096 (ACS infectious diseases, 2020)
Values after ≈ are worked out from the molar mass of the structure shown. Like-named read-outs stand apart in the source and are kept apart here. Marks after values point to notes of the source that are not given here.

Legend:
NDM-1 [1] = target: T1, NDM-1 (Klebsiella pneumoniae, UniProt C7C422); assay: biochemical; assay type: biochemical; details: for inhibition of nitrocefin turnover: at the concentrations tested, up to 320 μM
Target sequence in this assay (C7C422 29-270, looked up): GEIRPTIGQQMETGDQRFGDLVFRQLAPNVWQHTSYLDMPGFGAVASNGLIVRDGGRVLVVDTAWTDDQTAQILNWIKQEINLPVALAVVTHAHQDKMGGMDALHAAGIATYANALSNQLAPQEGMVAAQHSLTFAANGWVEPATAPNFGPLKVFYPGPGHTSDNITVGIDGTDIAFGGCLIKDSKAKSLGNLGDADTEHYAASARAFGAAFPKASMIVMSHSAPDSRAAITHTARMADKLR

NDM-1 [2] = target: T1, NDM-1; assay: Turnover of PcephPT by purified NDM-1; assay type: biochemical; details: 5 nM NDM-1, concentrations up to 160 μM, HEPES pH 7.2, 37 °C
Target sequence in this assay (C7C422 29-270, looked up): as above

NDM-1 [3] = target: T1, NDM-1; assay type: cell-based, E. coli; details: for reduction of nitrocefin turnover: 100 μM, treated for 60 minutes at room temperature
Target sequence in this assay (C7C422 37-270 limits assumed): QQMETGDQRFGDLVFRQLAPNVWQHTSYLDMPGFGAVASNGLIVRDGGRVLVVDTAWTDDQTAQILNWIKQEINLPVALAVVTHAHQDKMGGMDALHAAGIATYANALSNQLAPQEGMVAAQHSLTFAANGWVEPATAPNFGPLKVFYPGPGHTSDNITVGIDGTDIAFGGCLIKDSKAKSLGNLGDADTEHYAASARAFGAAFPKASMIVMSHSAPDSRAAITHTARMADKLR

[4] = test system: E. coli MG1655 expressing NDM-1; assay: microbe, parasite or virus in culture; assay type: cell-based; details: for MIC: Escherichia coli; for MG1655 MIC: compound alone, 20 h, Mueller-Hinton broth
[5] = test system: E. coli UTI89 expressing NDM-1; assay: microbe, parasite or virus in culture; assay type: cell-based; details: for MIC: Escherichia coli; for UTI89 MIC: compound alone, Mueller-Hinton broth
[6] = test system: E. coli MG1655 expressing NDM-1; assay type: cell-based
[7] = test system: E. coli MG1655 expressing CTX-M-1; assay type: cell-based
NDM-1 [8] = target: T1, NDM-1; assay type: binding; details: 10 μM NDM-1, after dialysis
Target sequence in this assay (C7C422 29-270, looked up): as the sequence (C7C422 29-270, looked up) above

CoCo-NDM-1 = CoCo-NDM-1 (Klebsiella pneumoniae, UniProt C7C422); assay type: binding; details: 300 μM CoCo-NDM-1, one or two equivalents of compound
Chain of CoCo-NDM-1 (C7C422 29-270, looked up): as above

NDM-1 [9] = target: T1, NDM-1; assay type: biochemical; details: 0–60 μM inhibitor; for change of Vmax with increasing inhibitor concentration: 10 nM NDM-1, Figure S5; for inhibition mode: 10 nM NDM-1, nitrocefin 63–500 μM
Target sequence in this assay (C7C422 29-270, looked up): as above

susceptible strains = details: no reference given; cited from earlier work
[10] = MG1655, 20 h, read-out: MG1655 MIC
[11] = OD600 every 30 minutes over 20 h

## c1ccc(CN(CCN(Cc2ccccn2)Cc2ccccn2)Cc2ccccn2)nc1 [TPEN, N,N,N′,N′-tetrakis(2-pyridinylmethyl)-1,2-ethanediamine]
NDM-1 [1]
  IC50: 0.088 µM

## CC1=C(C(=O)O)N2C(=O)[C@@H](NC(=O)[C@H](N)c3ccccc3)[C@H]2SC1 [Cephalexin]
NDM-1 [1]
  IC50: 36 µM

## O=C(Cc1ccccc1)N[C@@H]1C(=O)N2C(C(=O)O)=C(CSc3cccc[n+]3[O-])CS[C@H]12 [PcephPT, 2-((((6R,7R)-2-carboxy-8-oxo-7-(2-phenylacetamido)-5-thia-1-azabicyclo[4.2.0]oct-2-en-3-yl)methyl)thio)pyridine 1-oxide]
NDM-1 [1]; Figure S2
  effect of increasing incubation time with NDM-1 on IC50: did not affect its IC50
NDM-1 [2]
  turnover of compound by NDM-1: turned over by 5 nM NDM-1 efficiently
NDM-1 [3]
  reduction of nitrocefin turnover: more than 75%
NDM-1 [3]; cells exposed for only 30 minutes, compared with 60 minutes
  inhibition of nitrocefin turnover: less inhibited
[4]; [10]
  MIC: > 160 µM
[4]
  MG1655 MIC: >160 ^* μM
[5]; 20 h, read-out: UTI89 MIC
  MIC: > 160 µM
[5]; 20 h
  UTI89 MIC: >160 ^* μM
[6]; Figure S3
  effect of addition of copper on growth pattern: no significant difference
[6]; at concentrations of 40 μM and higher
  time of onset of growth inhibition: between five and eight hours
[6]; growth initially in all conditions
  concentration giving delayed onset of growth inhibition: ≥ 40 µM
[7]; varying concentrations, compared with PT
  growth pattern: identical to that caused by PT
NDM-1 [8]; 40 μM (four equivalents)
  zinc removed from NDM-1: did not lead to loss of zinc
NDM-1 [8]; 160 μM (sixteen equivalents)
  zinc removed from NDM-1: did not lead to loss of zinc
CoCo-NDM-1
  change of CoCo-NDM-1 UV-Vis spectrum: increase in absorbance in the 500–650 nm region
NDM-1 [9]
  change of Vmax with increasing inhibitor concentration: clear decrease in Vmax
  inhibition mode: not competitive

## CO/N=C(\C(=O)N[C@@H]1C(=O)N2C(C(=O)O)=C(CSc3nc(=O)c(=O)[nH]n3C)CS[C@H]12)c1csc(N)n1 [Ceftriaxone]
NDM-1 [1]
  IC50: 16 µM

## C[C@@H](O)[C@H]1C(=O)N2C(C(=O)O)=C(S[C@@H]3CN[C@H](C(=O)N(C)C)C3)[C@H](C)[C@H]12 [Meropenem]
NDM-1 [1]
  IC50: > 100 µM
  inhibition of nitrocefin turnover: did not inhibit nitrocefin turnover
[4]; [10]
  MIC: > 160 µM
[4]; MG1655, read-out: MG1655 MIC of meropenem
  MIC: 10 µM
[4]
  MG1655 MIC: >160 µM
[4]; with fixed 10 μM PT
  MG1655 MIC of meropenem: not restored
[4]; with fixed 10 μM PcephPT
  MG1655 MIC of meropenem: not restored
[5]; 20 h, read-out: UTI89 MIC
  MIC: > 160 µM
[5]; read-out: UTI89 MIC of meropenem
  MIC: 10 µM
[5]; 20 h
  UTI89 MIC: >160 µM
[5]; with fixed 10 μM PT
  UTI89 MIC of meropenem: not restored
[5]; with fixed 10 μM PcephPT
  UTI89 MIC of meropenem: not restored
Susceptible strains
  MIC: lower than 10 μM

## O=C(O)c1cccc(C(=O)O)n1 [DPA, dipicolinic acid]
NDM-1 [1]
  IC50: 1.8 µM

## C[C@@H](O)[C@H]1C(=O)N2C(C(=O)O)=C(SCCN=CN)C[C@H]12 [Imipenem]
NDM-1 [1]
  IC50: > 100 µM
  inhibition of nitrocefin turnover: did not inhibit nitrocefin turnover

## [O-][n+]1ccccc1S [PT, pyrithione]
NDM-1 [1]
  IC50: 17 µM
NDM-1 [3]
  reduction of nitrocefin turnover: more than 75%
[4]; [10]
  MIC: 20 µM (≈ 2.54 µg/mL)
[5]; 20 h, read-out: UTI89 MIC
  MIC: 40 µM (≈ 5.09 µg/mL)
[6]; [11]
  concentration that fully inhibits growth: ≥ 20 µM
[6]; at 10 μM
  growth pattern: delayed growth
[7]; [11]
  concentration that fully inhibits growth: ≥ 20 µM
[7]; at 10 μM
  growth pattern: delayed growth
NDM-1 [8]; 40 μM (four equivalents)
  zinc removed from NDM-1: did not lead to loss of zinc
NDM-1 [8]; 160 μM (sixteen equivalents)
  zinc removed from NDM-1: did not lead to loss of zinc
CoCo-NDM-1
  change of CoCo-NDM-1 UV-Vis spectrum: increase in absorbance in the 500–650 nm region
NDM-1 [9]
  change of Vmax with increasing inhibitor concentration: clear decrease in Vmax
  inhibition mode: not competitive

## CC(=O)OCC1=C(C(=O)O)N2C(=O)[C@@H](NC(=O)Cc3cccs3)[C@H]2SC1 [Cephalothin]
NDM-1 [1]
  IC50: 9.1 µM
